Assay results reported in patent publication US20070032508A1, “Quinazoline derivatives as tyrosine kinase inhibitors” (priority 2003, published 2007).

Assays:
[1] = molecular target: T1, erbB2 tyrosine kinase (Homo sapiens, UniProt P04626); assay: Test (a) protein tyrosine kinase phosphorylation assay, erbB2; format: biochemical; conditions: recombinant intracellular fragment, ATP at Km; read-out: IC50 Test (a): Inhibition of erbB2 tyrosine kinase protein phosphorylation
T1 construct: Recombinant intracellular fragments of EGFR, erbB2 and erbB4; made in house; host or cells: baculovirus/Sf21 insect cells (cleared lysate used)
T1 sequence (P04626 676-1255 limits assumed): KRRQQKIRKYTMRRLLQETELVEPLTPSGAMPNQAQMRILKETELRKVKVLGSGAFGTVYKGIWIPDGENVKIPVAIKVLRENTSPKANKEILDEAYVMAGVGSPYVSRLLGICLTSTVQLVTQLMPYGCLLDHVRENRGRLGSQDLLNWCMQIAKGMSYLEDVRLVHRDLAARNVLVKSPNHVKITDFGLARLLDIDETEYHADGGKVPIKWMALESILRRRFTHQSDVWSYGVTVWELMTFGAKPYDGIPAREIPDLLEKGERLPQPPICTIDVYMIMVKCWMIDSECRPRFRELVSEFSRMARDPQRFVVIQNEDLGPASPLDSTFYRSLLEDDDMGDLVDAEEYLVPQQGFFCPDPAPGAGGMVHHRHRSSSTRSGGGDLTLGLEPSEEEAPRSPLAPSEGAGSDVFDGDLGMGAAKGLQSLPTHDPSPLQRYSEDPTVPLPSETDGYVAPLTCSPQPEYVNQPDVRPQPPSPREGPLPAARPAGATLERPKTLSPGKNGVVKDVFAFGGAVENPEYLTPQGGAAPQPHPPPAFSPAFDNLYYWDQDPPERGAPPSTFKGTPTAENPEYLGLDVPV
Protocol: (§1) A) Protein Tyrosine Kinase Phosphorylation Assays
(§2) Recombinant intracellular fragments of EGFR, erbB2 and erbB4 (accession numbers X00588, X03363 and L07868 respectively) were cloned and expressed in the baculovirus/Sf21 system. Lysates were prepared from these cells by treatment with ice-cold lysis buffer (20 mM N-2-hydroxyethylpiperizine-N′-2-ethanesulfonic acid (HEPES) pH7.5, 150 mM NaCl, 10% glycerol, 1% Triton X-100, 1.5 mM MgCl2, 1 mM ethylene glycol-bis(β-aminoethyl ether) N′,N′,N′,N′-tetraacetic acid (EGTA), plus protease inhibitors and then cleared by centrifugation.
(§3) Constitutive kinase activity of these recombinant proteins was determined by their ability to phosphorylate a synthetic peptide (made up of a random co-polymer of Glutamic Acid, Alanine and Tyrosine in the ratio of 6:3:1). Specifically, Maxisorb™ 96-well immunoplates were coated with synthetic peptide (0.2 μg of peptide in a 200 μl phosphate buffered saline (PBS) solution and incubated at 4° C. overnight). Plates were washed in 50 mM HEPES pH 7.4 at room temperature to remove any excess unbound synthetic peptide. […]
(§4) The immobilised phospho-peptide product of the reaction was detected by immunological methods. […] After further washing, HRP activity in each well of the plate was measured […] using 22′-Azino-di-[3-ethylbenzthiazoline sulfonate (6)] diammonium salt crystals (ABTS™ from Roche) as a substrate.
(§5) Quantification of colour development and thus enzyme activity was achieved by the measurement of absorbance at 405 nm on a Molecular Devices ThermoMax microplate reader. Kinase inhibition for a given compound was expressed as an IC50 value. […] The range of phosphorylation was calculated from the positive (vehicle plus ATP) and negative (vehicle minus ATP) control values.

[2] = molecular target: T2, erbB2 in a MCF7 derived cell line (Clone 24 cells) (Homo sapiens, UniProt P04626); assay: Test (c) Clone 24 phospho-erbB2 cell assay; format: cell-based; conditions: Clone 24 cells (MCF7 transfected with full length erbB2), 4 hrs with compound; read-out: IC50 Test (c): Inhibition of erbB2 tyrosine kinase protein phosphorylation
T2 construct: a cell line that overexpresses full length wild type erbB2 protein; expressed in transfected cells; host or cells: MCF7 (breast carcinoma) cells, 'Clone 24'
T2 sequence (P04626 23-1255): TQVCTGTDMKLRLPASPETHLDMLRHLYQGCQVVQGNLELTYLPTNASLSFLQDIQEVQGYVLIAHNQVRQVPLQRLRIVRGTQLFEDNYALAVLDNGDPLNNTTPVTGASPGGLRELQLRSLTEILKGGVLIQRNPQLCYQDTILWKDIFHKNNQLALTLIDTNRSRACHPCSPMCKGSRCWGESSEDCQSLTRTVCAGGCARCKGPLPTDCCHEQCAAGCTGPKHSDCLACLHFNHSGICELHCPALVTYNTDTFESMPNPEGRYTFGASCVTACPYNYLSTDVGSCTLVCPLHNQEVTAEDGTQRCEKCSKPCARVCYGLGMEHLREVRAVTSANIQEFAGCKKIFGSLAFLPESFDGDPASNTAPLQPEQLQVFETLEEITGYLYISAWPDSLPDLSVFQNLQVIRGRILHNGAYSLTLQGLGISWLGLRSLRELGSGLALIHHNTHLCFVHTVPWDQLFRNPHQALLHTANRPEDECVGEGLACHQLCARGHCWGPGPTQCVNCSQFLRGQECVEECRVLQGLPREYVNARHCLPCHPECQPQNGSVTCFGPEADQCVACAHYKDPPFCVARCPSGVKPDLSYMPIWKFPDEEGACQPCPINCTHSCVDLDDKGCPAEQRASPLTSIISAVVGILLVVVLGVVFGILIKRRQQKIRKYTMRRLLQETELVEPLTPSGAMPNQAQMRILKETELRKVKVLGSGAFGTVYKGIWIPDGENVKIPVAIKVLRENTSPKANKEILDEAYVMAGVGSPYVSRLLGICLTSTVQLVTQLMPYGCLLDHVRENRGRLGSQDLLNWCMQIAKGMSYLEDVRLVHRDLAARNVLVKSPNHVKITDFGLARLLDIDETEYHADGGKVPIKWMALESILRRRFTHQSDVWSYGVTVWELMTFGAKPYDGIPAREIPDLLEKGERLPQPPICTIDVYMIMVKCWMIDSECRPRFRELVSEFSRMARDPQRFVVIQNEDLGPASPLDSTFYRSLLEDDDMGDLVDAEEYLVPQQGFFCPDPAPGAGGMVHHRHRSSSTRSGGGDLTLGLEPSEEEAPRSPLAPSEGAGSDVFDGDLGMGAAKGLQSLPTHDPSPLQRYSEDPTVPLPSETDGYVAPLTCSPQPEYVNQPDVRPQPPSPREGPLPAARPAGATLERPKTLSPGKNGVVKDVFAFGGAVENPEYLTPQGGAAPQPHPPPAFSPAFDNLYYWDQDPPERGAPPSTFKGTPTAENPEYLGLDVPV
Protocol: c) Clone 24 phospho-erbB2 Cell Assay
This immunofluorescence end point assay measures the ability of a test compound to inhibit the phosphorylation of erbB2 in a MCF7 (breast carcinoma) derived cell line which was generated by transfecting MCF7 cells with the full length erbB2 gene using standard methods to give a cell line that overexpresses full length wild type erbB2 protein (hereinafter ‘Clone 24’ cells).
Clone 24 cells were cultured in Growth Medium (phenol red free Dulbecco's modified Eagle's medium (DMEM) containing 10% foetal bovine serum, 2 mM glutamine and 1.2 mg/ml G418) in a 7.5% CO2 air incubator at 37° C. Cells were harvested from T75 stock flasks by washing once in PBS phosphate buffered saline, pH7.4, Gibco No. 10010-015) and harvested using 2 mls of Trypsin (1.25 mg/ml)/ethylaminediaminetetraacetic acid (EDTA) (0.8 mg/ml) solution. The cells were resuspended in Growth Medium. Cell density was measured using a haemocytometer and viability was calculated using Trypan Blue solution before being further diluted in Growth Medium and seeded at a density of 1×10^4 cells per well (in 100 ul) into clear bottomed 96 well plates (Packard, No. 6005182).
3 days later, Growth Medium was removed from the wells and replaced with 100 ul Assay Medium (phenol red free DMEM, 2 mM glutamine, 1.2 mg/ml G418) either with or without erbB inhibitor compound. Plates were returned to the incubator for 4 hrs and then 20 μl of 20% formaldehyde solution in PBS was added to each well and the plate was left at room temperature for 30 minutes. This fixative solution was removed with a multichannel pipette, 100 μl of PBS was added to each well and then removed with a multichannel pipette and then 50 μl PBS was added to each well. Plates were then sealed and stored for up to 2 weeks at 4° C.
Immunostaining was performed at room temperature. […]
The Fluorescence signal is each well was measured using an Acumen Explorer Instrument (Acumen Bioscience Ltd.), a plate reader that can be used to rapidly quantitate features of images generated by laser-scanning. […]

[3] = molecular target: T3, EGFR tyrosine kinase (Homo sapiens, UniProt P00533); assay: Test (a) protein tyrosine kinase phosphorylation assay, EGFR; format: biochemical; conditions: recombinant intracellular fragment, ATP at Km; read-out: IC50 Test (a): Inhibition of EGFR tyrosine kinase protein phosphorylation
T3 construct: Recombinant intracellular fragments of EGFR, erbB2 and erbB4; made in house; host or cells: baculovirus/Sf21 insect cells (cleared lysate used)
T3 sequence (P00533 669-1210 limits assumed): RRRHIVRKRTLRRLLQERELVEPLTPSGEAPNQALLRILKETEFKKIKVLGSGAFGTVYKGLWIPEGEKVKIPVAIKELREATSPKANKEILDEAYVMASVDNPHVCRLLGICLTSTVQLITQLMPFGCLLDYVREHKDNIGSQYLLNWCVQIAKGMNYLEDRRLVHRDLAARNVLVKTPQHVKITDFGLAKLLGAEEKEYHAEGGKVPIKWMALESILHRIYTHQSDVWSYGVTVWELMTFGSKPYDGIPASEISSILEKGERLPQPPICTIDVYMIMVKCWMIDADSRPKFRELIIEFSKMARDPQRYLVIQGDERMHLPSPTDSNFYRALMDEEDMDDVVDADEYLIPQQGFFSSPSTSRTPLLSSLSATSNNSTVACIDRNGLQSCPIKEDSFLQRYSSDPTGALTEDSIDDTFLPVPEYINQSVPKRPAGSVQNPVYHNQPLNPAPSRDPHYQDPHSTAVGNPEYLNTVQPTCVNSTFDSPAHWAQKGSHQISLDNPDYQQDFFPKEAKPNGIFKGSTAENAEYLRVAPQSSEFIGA
Protocol: as §1
This test measures the ability of a test compound to inhibit the phosphorylation of a tyrosine containing polypeptide substrate by EGFR tyrosine kinase enzyme.
as §2, §3, §4, §5

Row | IC50 [1] | IC50 [2] | IC50 [3] | SMILES
1 | 2 nM | 210 nM | 39 nM | CN(C)CC(=O)N1CCC(Oc2ccc3ncnc(Nc4ccc(OCc5ccccn5)c(Cl)c4)c3c2)CC1 [Example 8]
2 | 7 nM | 150 nM | 21 nM | CN(C)CC(=O)N1CCC(Oc2ccc3ncnc(Nc4ccc(OCc5cnccn5)c(Cl)c4)c3c2)CC1 [Example 9, N-[3-chloro-4-(pyrazin-2-ylmethoxy)phenyl]-6-({1-[(dimethylamino)acetyl]piperidin-4-yl}oxy)quinazolin-4-amine]
3 | 2 nM | 4 nM | 213 nM | CS(=O)(=O)N1CCC(COc2ccc3ncnc(Nc4ccc(OCc5ccccn5)c(Cl)c4)c3c2)C1 (stereo not drawn) [Example 14, N-[3-Chloro-4-(pyridin-2-ylmethoxy)phenyl]-6-{[1-(methylsulfonyl)pyrrolidin-3-yl]methoxy}quinazolin-4-amine]
